SMILES strings stand for the structures. Like-named read-outs stand apart in the source and are kept apart here.

The subject of assay [1] is SW480 cells (spheroid). The assay can be described thus: Matrigel spheroid growth / viability assay, SW480. Particulars: for effect on SW480 spheroid formation: 2-μM dose; for GI50: Homo sapiens, SW480, 168 h. Type of assay: cell-based. The protocol: To prepare Matrigel-coated culture plates, 96-well and 24-well plates were placed on ice and coated with 25 μL or 300 μL, respectively, of Matrigel matrix (Corning, LDEV-free) that had been thawed overnight at 4° C. The plates were then placed in a 37° C. incubator for 30 min to allow the Matrigel to solidify. SW480 or HCT116 cells were suspended in spheroid culture medium (RPMI-1640 containing 20 ng/mL recombinant human epidermal growth factor (Abcam, ab9697), 20 ng/mL recombinant human fibroblast growth factor (BioVision, 4037), 5 μg/mL heparin (Sigma), 1× N-2 supplement (Thermo Fisher Scientific), 100 U/mL penicillin, and 100 μg/mL streptomycin) and then seeded into the 96-well and 24-well Matrigel-coated plates at densities of 1,000 or 5,000 cells/well and total well volumes of […] or 1 mL, respectively. Compounds were diluted in spheroid culture medium and added to the wells, and the spheroid were grown at 37° C. with 5% CO2 for 7 days.
To quantify spheroid growth at the 7-day endpoint, unstained spheroids were imaged with phase-contrast illumination using a Keyence BZ-X710 microscope. Some cultures were also stained with crystal violet to enable brightfield imaging. Briefly, the Matrigel spheroids cultures were treated with PBS containing 0.5% crystal violet and 5% methanol for 15 min at 37° C. and then gently washed 4×5 min with PBS. Spheroid sizes were quantified with ImageJ (Fiji) software using masks created with the default “Threshold” function and foreground/background adjustments to optimize masking fidelity. The full field of view was then selected for “Analyze Particles” analysis, providing numbered list of each spheroid and its area in the micrograph. In the few cases that two adjacent spheroids were treated as one object by the image processing software, their measurements were manually corrected using the “Freehand Selections” tool. To exclude background and debris from dead cells, spheroids with areas less than 500 μm^2 were excluded from the image analyses.
(§1) SW480 or HCT116 cells were seeded into regular or Matrigel-coated 96-well plates at a density of 1000 cells/well. The cells were cultured in the corresponding adherent or spheroid culture medium (200 μL/well) containing the designated compounds or an equivalent amount of DMSO vehicle. Each culture was maintained for 7 days, and then cell viabilities were measured using a CellTiter-Glo 3D Cell Viability Assay kit (Promega). Briefly, 100 μL of the culture medium was removed from each well and replaced with 100 μL 3D Cell Assay reagent. The cells in each well were next homogenized by vigorous pipetting, and the plate was incubated for 10 min at room temperature to stabilize the chemiluminescent signal. A 150-μL aliquot from each well was then transferred into a white opaque 96-well assay plate (flat-bottom and non-treated; Corning Costar) and luminescence intensities were measured with a Veritas microplate luminometer (Turner BioSystems).

The subject of assay [2] is SW480 cells (adherent). The assay can be described thus: Cell viability assay, adherent SW480 cultures. Type of assay: cell-based, human. Particulars: adherent culture, 7 days. The protocol: as §1
Assay [3] concerns NIH-3T3 cells. The assay can be described thus: Seahorse oxygen-consumption-rate assay (NIH3T3). The format is cell-based, murine. Particulars: Mus musculus.
Setting [4] is: Matrigel spheroid culture, 7 days, read-out: Spheroid SW480 GI50.

In the case of `COc1ccccc1-n1cc(-c2ccccn2)[n+]2c1CCCCC2` [Compound 63], the “effect on SW480 spheroid formation” value in assay [1] is “did not impede the growth”.

Take `COc1ccccc1C1=CN(c2ccc(-c3ccccc3)cc2)C2=NCCCCN12` [HPI-273]: the concentration for 50% growth inhibition (GI50) in assay [2] (Homo sapiens, SW480, 168 h) amounted to 5800 nM; in assay [1] (setting [4]) it was 1600 nM. Further, the IC50 in assay [3] stood at 190 nM.

On to `COc1ccccc1-n1cc(-c2ccc(-c3ccccc3)cc2)[n+]2c1CCCCC2` [Imidazolium 2], for which the GI50 in assay [2] (Homo sapiens, SW480, 168 h) is 570 nM; in assay [1] (setting [4]), 820 nM. Besides, the “effect on SW480 spheroid formation” value in assay [1] is on record as “strongly suppressed SW480 spheroid formation”. This compound came in with a 50% inhibitory concentration (IC50) in assay [3] of 180 nM.

`COc1ccccc1-c1ccc(-c2cn(-c3ccccc3OC)c3[n+]2CCCCC3)cc1.[Br-]` [Imidazolium 8]: the concentration for 50% growth inhibition (GI50) in assay [2] (Homo sapiens, SW480, 168 h) was found to be 850 nM; in assay [1] (setting [4]), 960 nM. For the same compound, the “effect on SW480 spheroid formation” value in assay [1] is given as “strongly suppressed SW480 spheroid formation”. The same compound registered an IC50 in assay [3] of 130 nM.

Consider `COc1ccccc1C1=CN(c2ccc(-c3ccccc3)cc2)C2=NCCCN12` [STL5-T-0002], for which the concentration for 50% growth inhibition (GI50) in assay [2] came out at 8200 nM; in assay [1] (read-out: Spheroid SW480 GI50 (nM), Matrigel spheroid culture, 7 days), 750 nM. Further, the IC50 in assay [3] was found to be 850 nM.

Source of the values: patent US12570661B2, “Isoform-specific aldehyde dehydrogenase inhibitors” (The Board of Trustees of the Leland Stanford Junior …, priority 2020, dated 2026).
